Measurements from PMC9167803 (Acta Pharmaceutica Sinica. B, 2022).

Target: SARS-CoV-2 RBD (Severe acute respiratory syndrome coronavirus 2, UniProt P0DTC2)
Test: biochemical
Assay type: binding

Compound: O=c1c(O)c(-c2ccc(O)c(O)c2)oc2cc(O)cc(O)c12 [compound 4, quercetin]
- Kd: 75.6 µM
